# US4452778A, “Synergistic antibacterial compositions and method of treatment of infections caused by multiple antibiotic-resistant organisms” (Eli Lilly and Company, priority 1981, dated 1984)
# Read-outs that look alike come from different tables or passages of the source.
# Legend:
# [1] = clinical; conditions: in vivo, iv, mean serum concentration
# [2] = system: Proteus mirabilis; assay: Checkerboard broth dilution synergy study (mic); format: cell-based; conditions: Table II, strain Allen
# [3] = system: E. cloacae; assay: Checkerboard broth dilution synergy study (mic); format: cell-based; conditions: for MIC: Enterobacter cloacae, read-out: mic, drug alone
# [4] = system: Serratia marcescens; assay: Checkerboard broth dilution synergy study (mic); format: cell-based; conditions: for MIC: Serratia marcescens, read-out: mic, drug alone
# [5] = system: E. coli; assay: Checkerboard broth dilution synergy study (mic); format: cell-based; conditions: Table II; for MIC: Escherichia coli, read-out: mic, drug alone
# [6] = system: Pseudomonas maltophilia; assay: Checkerboard broth dilution synergy study (mic); format: cell-based; conditions: for MIC: Stenotrophomonas maltophilia, read-out: mic, drug alone
# [7] = system: Pseudomonas pseudomallei; assay: microbe, parasite or virus in culture; format: cell-based
# [8] = system: Proteus vulgaris; assay: Checkerboard broth dilution synergy study (mic); format: cell-based; conditions: Table II; for MIC: Proteus vulgaris, read-out: mic, drug alone
# [9] = system: Proteus rettgeri; assay: Checkerboard broth dilution synergy study (mic); format: cell-based; conditions: for MIC: Providencia rettgeri, read-out: mic, drug alone
# [10] = system: Acinetobacter sp.; assay: Checkerboard broth dilution synergy study (mic); format: cell-based; conditions: for MIC: Acinetobacter, read-out: mic, drug alone
# [11] = system: Klebsiella pneumoniae; assay: Checkerboard broth dilution synergy study (mic); format: cell-based; conditions: for MIC: Klebsiella pneumoniae, read-out: mic, drug alone
compound,measurement,setting,value
"COC1(NC(=O)C(C(=O)O)c2ccc(O)cc2)C(=O)N2C(C(=O)O)=C(CSc3nnnn3C)COC21 (centres unmarked) [1-oxa compound I, moxalactam]",concentration at 11 h,[1],1200 ng/mL
same,MIC,"[2]; Proteus mirabilis, read-out: mic, drug alone",0.06 µg/mL
same,mic of each drug in combination I + T,[2],< 0.12 µg/mL
same,MIC,"[3]; Table II, strain 1246",0.25 µg/mL
same,MIC,"[3]; Table II, strain 1253",4 µg/mL
same,MIC,"[3]; Table II, strain 1415",0.12 µg/mL
same,MIC,"[3]; Table II, strain B293",0.5 µg/mL
same,MIC,"[3]; Table III, isolate 228",0.12 µg/mL
same,MIC,"[3]; Table III, isolate 1253",4 µg/mL
same,MIC,"[3]; Table III, isolate 1296",0.25 µg/mL
same,MIC,"[3]; Table III, isolate 1415",0.12 µg/mL
same,MIC,"[3]; Table III, isolate McQuinn",0.25 µg/mL
same,mic of each drug in combination I + T,"[3]; Table II, strain 1246",< 0.12 µg/mL
same,mic of each drug in combination I + P,"[3]; Table II, strain 1253",2 µg/mL
same,mic of each drug in combination I + T,"[3]; Table II, strain 1253",0.25 µg/mL
same,mic of each drug in combination I + T,"[3]; Table II, strain 1415",0.12 µg/mL
same,mic of each drug in combination I + P,"[3]; Table II, strain B293",0.25 µg/mL
same,mic of each drug in combination I + T,"[3]; Table II, strain B293",0.12 µg/mL
same,mic of each drug in combination I + A,"[3]; Table III, isolate 228",< 0.06 µg/mL
same,mic of each drug in combination I + A,"[3]; Table III, isolate 1253",< 0.06 µg/mL
same,mic of each drug in combination I + A,"[3]; Table III, isolate 1296",0.06 µg/mL
same,mic of each drug in combination I + A,"[3]; Table III, isolate 1415",0.12 µg/mL
same,mic of each drug in combination I + A,"[3]; Table III, isolate McQuinn",0.12 µg/mL
same,MIC,"[4]; Table II, strain 100",0.25 µg/mL
same,MIC,"[4]; Table II, strain 302-2",1 µg/mL
same,MIC,"[4]; Table II, strain 796",8 µg/mL
same,MIC,"[4]; Table II, strain 14142",1 µg/mL
same,MIC,"[4]; Table II, strain Townsend",4 µg/mL
same,MIC,"[4]; Table III, isolate 463-2",8 µg/mL
same,MIC,"[4]; Table III, isolate 606",4 µg/mL
same,MIC,"[4]; Table III, isolate 1414",1 µg/mL
same,MIC,"[4]; Table III, isolate B377",8 µg/mL
same,MIC,"[4]; Table III, isolate Ziegler",4 µg/mL
same,mic of each drug in combination I + P,"[4]; Table II, strain 100",0.12 µg/mL
same,mic of each drug in combination I + T,"[4]; Table II, strain 100",0.12 µg/mL
same,mic of each drug in combination I + P,"[4]; Table II, strain 302-2",0.12 µg/mL
same,mic of each drug in combination I + T,"[4]; Table II, strain 302-2",0.12 µg/mL
same,mic of each drug in combination I + P,"[4]; Table II, strain 796",2 µg/mL
same,mic of each drug in combination I + T,"[4]; Table II, strain 796",2 µg/mL
same,mic of each drug in combination I + P,"[4]; Table II, strain 14142",0.12 µg/mL
same,mic of each drug in combination I + T,"[4]; Table II, strain 14142",0.25 µg/mL
same,mic of each drug in combination I + P,"[4]; Table II, strain Townsend",2 µg/mL
same,mic of each drug in combination I + T,"[4]; Table II, strain Townsend",1 µg/mL
same,mic of each drug in combination I + A,"[4]; Table III, isolate 463-2",< 0.06 µg/mL
same,mic of each drug in combination I + A,"[4]; Table III, isolate 606",0.5 µg/mL
same,mic of each drug in combination I + A,"[4]; Table III, isolate 1414",0.06 µg/mL
same,mic of each drug in combination I + A,"[4]; Table III, isolate B377",0.12 µg/mL
same,mic of each drug in combination I + A,"[4]; Table III, isolate Ziegler",0.06 µg/mL
same,MIC,[5]; strain 46-2,0.03 µg/mL
same,MIC,[5]; strain 77-3,0.03 µg/mL
same,MIC,[5]; strain 136-3,0.06 µg/mL
same,MIC,[5]; strain 1260,0.03 µg/mL
same,MIC,[5]; strain 1262,0.03 µg/mL
same,MIC,[5]; strain Briley,0.12 µg/mL
same,MIC,[5]; strain Dill,0.25 µg/mL
same,mic of each drug in combination I + P,[5]; strain 46-2,< 0.12 µg/mL
same,mic of each drug in combination I + T,[5]; strain 46-2,< 0.12 µg/mL
same,mic of each drug in combination I + T,[5]; strain 77-3,< 0.12 µg/mL
same,mic of each drug in combination I + T,[5]; strain 136-3,< 0.12 µg/mL
same,mic of each drug in combination I + P,[5]; strain 1253,0.5 µg/mL
same,mic of each drug in combination I + T,[5]; strain 1253,< 0.12 µg/mL
same,mic of each drug in combination I + T,[5]; strain 1260,< 0.12 µg/mL
same,mic of each drug in combination I + P,[5]; strain 1262,< 0.12 µg/mL
same,mic of each drug in combination I + T,[5]; strain 1262,< 0.12 µg/mL
same,mic of each drug in combination I + P,[5]; strain 1415,< 0.12 µg/mL
same,mic of each drug in combination I + T,[5]; strain 1415,< 0.12 µg/mL
same,mic of each drug in combination I + P,[5]; strain Briley,< 0.12 µg/mL
same,mic of each drug in combination I + T,[5]; strain Briley,< 0.12 µg/mL
same,mic of each drug in combination I + T,[5]; strain Dill,< 0.12 µg/mL
same,MIC,"[6]; Table II, strain 10",32 µg/mL
same,MIC,"[6]; Table II, strain 11",4 µg/mL
same,MIC,"[6]; Table II, strain 505",8 µg/mL
same,MIC,"[6]; Table III, isolate 10",32 µg/mL
same,MIC,"[6]; Table III, isolate 505",8 µg/mL
same,mic of each drug in combination I + T,"[6]; Table II, strain 10",4 µg/mL
same,mic of each drug in combination I + T,"[6]; Table II, strain 11",0.5 µg/mL
same,mic of each drug in combination I + T,"[6]; Table II, strain 505",0.6 µg/mL
same,mic of each drug in combination I + A,"[6]; Table III, isolate 10",8 µg/mL
same,mic of each drug in combination I + A,"[6]; Table III, isolate 505",2 µg/mL
same,MIC,"[7]; Burkholderia pseudomallei, read-out: mic, drug alone",32 µg/mL
same,mic of each drug in combination I + A,"[7]; Table III, isolate not named",4 µg/mL
same,MIC,[8]; strain 363,0.12 µg/mL
same,MIC,[8]; strain Shide,0.06 µg/mL
same,mic of each drug in combination I + T,[8]; strain 363,< 0.12 µg/mL
same,mic of each drug in combination I + T,[8]; strain Shide,< 0.12 µg/mL
same,MIC,"[9]; Table II, strain 65",0.25 µg/mL
same,MIC,"[9]; Table III, isolate 53",0.25 µg/mL
same,MIC,"[9]; Table III, isolate 136-1",0.25 µg/mL
same,MIC,"[9]; Table III, isolate 768",0.5 µg/mL
same,MIC,"[9]; Table III, isolate 997",0.4 µg/mL
same,MIC,"[9]; Table III, isolate 1422",2 µg/mL
same,mic of each drug in combination I + T,"[9]; Table II, strain 65",0.12 µg/mL
same,mic of each drug in combination I + A,"[9]; Table III, isolate 53",< 0.06 µg/mL
same,mic of each drug in combination I + A,"[9]; Table III, isolate 136-1",0.12 µg/mL
same,mic of each drug in combination I + A,"[9]; Table III, isolate 768",< 0.06 µg/mL
same,mic of each drug in combination I + A,"[9]; Table III, isolate 997",< 0.06 µg/mL
same,mic of each drug in combination I + A,"[9]; Table III, isolate 1422",2 µg/mL
same,MIC,"[10]; Table II, strain 28-1",16 µg/mL
same,MIC,"[10]; Table II, strain 28-2",16 µg/mL
same,MIC,"[10]; Table II, strain 106",8 µg/mL
same,MIC,"[10]; Table II, strain 107",32 µg/mL
same,MIC,"[10]; Table II, strain 109",16 µg/mL
same,MIC,"[10]; Table III, isolate 28-1",16 µg/mL
same,MIC,"[10]; Table III, isolate 28-2",16 µg/mL
same,MIC,"[10]; Table III, isolate 106",8 µg/mL
same,MIC,"[10]; Table III, isolate 107",32 µg/mL
same,MIC,"[10]; Table III, isolate 109",16 µg/mL
same,mic of each drug in combination I + T,"[10]; Table II, strain 28-1",0.6 µg/mL
same,mic of each drug in combination I + T,"[10]; Table II, strain 28-2",2 µg/mL
same,mic of each drug in combination I + T,"[10]; Table II, strain 106",0.6 µg/mL
same,mic of each drug in combination I + T,"[10]; Table II, strain 107",2 µg/mL
same,mic of each drug in combination I + T,"[10]; Table II, strain 109",2 µg/mL
same,mic of each drug in combination I + A,"[10]; Table III, isolate 28-1",2 µg/mL
same,mic of each drug in combination I + A,"[10]; Table III, isolate 28-2",< 0.06 µg/mL
same,mic of each drug in combination I + A,"[10]; Table III, isolate 106",< 0.06 µg/mL
same,mic of each drug in combination I + A,"[10]; Table III, isolate 107",8 µg/mL
same,mic of each drug in combination I + A,"[10]; Table III, isolate 109",8 µg/mL
same,MIC,"[11]; Table II, strain 130",0.5 µg/mL
same,MIC,"[11]; Table II, strain 214-1",2 µg/mL
same,MIC,"[11]; Table II, strain 463",2 µg/mL
same,MIC,"[11]; Table II, strain 512",0.5 µg/mL
same,MIC,"[11]; Table II, strain 933",0.25 µg/mL
same,MIC,"[11]; Table II, strain 1204-2",2 µg/mL
same,MIC,"[11]; Table III, isolate 130",0.5 µg/mL
same,MIC,"[11]; Table III, isolate 214-1",2 µg/mL
same,MIC,"[11]; Table III, isolate 463",2 µg/mL
same,MIC,"[11]; Table III, isolate 938",0.25 µg/mL
same,MIC,"[11]; Table III, isolate 1231",0.5 µg/mL
same,mic of each drug in combination I + T,"[11]; Table II, strain 130",< 0.012 µg/mL
same,mic of each drug in combination I + P,"[11]; Table II, strain 214-1",0.5 µg/mL
same,mic of each drug in combination I + T,"[11]; Table II, strain 214-1",0.012 µg/mL
same,mic of each drug in combination I + P,"[11]; Table II, strain 463",2 µg/mL
same,mic of each drug in combination I + T,"[11]; Table II, strain 463",0.012 µg/mL
same,mic of each drug in combination I + P,"[11]; Table II, strain 512",0.5 µg/mL
same,mic of each drug in combination I + T,"[11]; Table II, strain 512",0.012 µg/mL
same,mic of each drug in combination I + T,"[11]; Table II, strain 933",< 0.012 µg/mL
same,mic of each drug in combination I + P,"[11]; Table II, strain 1204-2",0.5 µg/mL
same,mic of each drug in combination I + T,"[11]; Table II, strain 1204-2",0.012 µg/mL
same,mic of each drug in combination I + A,"[11]; Table III, isolate 130",0.5 µg/mL
same,mic of each drug in combination I + A,"[11]; Table III, isolate 214-1",< 0.06 µg/mL
same,mic of each drug in combination I + A,"[11]; Table III, isolate 463",2 µg/mL
same,mic of each drug in combination I + A,"[11]; Table III, isolate 938",< 0.06 µg/mL
same,mic of each drug in combination I + A,"[11]; Table III, isolate 1231",0.06 µg/mL
